Results published in ChEMBL document CHEMBL5537201, “Discovery of Unique Bis-Substituted Aromatic Amide Derivatives as Novel Highly Potent Antibiotics for Combating Methicillin-Resistant Staphylococcus aureus (MRSA)” (J Med Chem, 2024).
Converted amounts (≈) assume the structure as drawn. The source made the active and inactive calls. No cut-off for these calls is given here.

What was measured:
[1] = Cytotoxicity against human HaCaT cells assessed as reduction in cell viability measured after 24 hrs by CCK-8 method; assay type: toxicity, cell-based
Staphylococcus aureus [2] = assay: Antimicrobial activity against methicillin resistant Staphylococcus aureus clinical isolate MRS84 assessed as reduction in bacterial growth incubated for 24 hrs by two-fold broth dilution method; assay type: functional
Staphylococcus aureus [3] = assay: Induction of membrane morphological changes in Staphylococcus aureus ATCC6538 assessed as cell membrane deformation at 5 times of MIC measured after 0.5 hrs by FE-SEM analysis; assay type: functional, organism-based
Staphylococcus aureus [4] = assay: Bactericidal activity against Staphylococcus aureus ATCC6538 at 5 ug/ml measured upto 150 mins; assay type: functional, organism-based; settings: dose 5.0 µg/ml
Staphylococcus aureus [5] = assay: Bactericidal activity against methicillin-resistant Staphylococcus aureus clinical isolate MRS97 at 5 ug/ml measured upto 150 mins; assay type: functional, organism-based; settings: dose 5.0 µg/ml
Staphylococcus aureus [6] = assay: Binding affinity to Staphylococcus aureus ATCC6538 Phosphatidylglycerol assessed as change in MIC at upto 256 ug/ml measured after 22 hrs; settings: dose <= 256.0 µg/ml
Staphylococcus aureus [7] = assay: Antimicrobial activity against methicillin resistant Staphylococcus aureus clinical isolate MRS153 assessed as increase in ROS levels measured upto 90 mins by H2DCFDA probe based flow cytometry; assay type: functional, organism-based
[8] = Toxicity in BALB/c mouse assessed as mouse death at 50 mg/kg, iv measured upto 8 days; assay type: organism-based; settings: in vivo, 192 h, time < 8 day
[9] = Toxicity in BALB/c mouse assessed as as change in AST level at 25 to 50 mg/kg, iv; assay type: organism-based; settings: in vivo, dose 25-50 mg/kg
[10] = Toxicity in BALB/c mouse assessed as as effect on liver at 25 to 50 mg/kg, iv by H and E staining based analysis; assay type: organism-based; settings: in vivo, dose 25-50 mg/kg
[11] = Toxicity in BALB/c mouse assessed as as effect on spleen at 25 to 50 mg/kg, iv by H and E staining based analysis; assay type: organism-based; settings: in vivo, dose 25-50 mg/kg
Staphylococcus aureus [12] = assay: Antibacterial activity against methicillin-resistant Staphylococcus aureus clinical isolate MRS153 infected in C57BL/6N mouse model assessed as reversal of cell morphology to normal state at 3.125 to 12.5 mg/kg, iv; assay type: functional, organism-based; settings: dose 3.125-12.5 mg/kg
Staphylococcus aureus [13] = assay: Upregulation of ABC transport family genes in Staphylococcus aureus ATCC6538 at 5 ug/ml incubated for 2 hrs by RNA sequencing analysis; assay type: functional; settings: dose 5.0 µg/ml
Staphylococcus aureus [14] = assay: Upregulation of redox gene expression in Staphylococcus aureus ATCC6538 at 5 ug/ml incubated for 2 hrs by RNA sequencing analysis; assay type: functional, organism-based; settings: dose 5.0 µg/ml

For O=C(CCC(F)(F)F)N(Cc1cc2ccccc2s1)c1cc(-c2noc(C(F)(F)F)n2)ccc1O, the IC50 at 24 h [1] was > 25 µg/mL, the MIC (Staphylococcus aureus [2]) was 2 µg/mL (≈ 3.88 µM) and the Activity (Staphylococcus aureus [3]) was “Active”. The Activity (Staphylococcus aureus [4]) was “Active”, the Activity (Staphylococcus aureus [5]) was “Active” and the Activity (Staphylococcus aureus [6]) was “inactive”. For the same molecule, the Activity (Staphylococcus aureus [7]) was “Active”, the Activity [8] was “Non-Toxic” and the Activity [9] was “Non-Toxic”. For the same molecule, the Activity [10] was “Non-Toxic”, the Activity [11] was “Non-Toxic” and the Activity (Staphylococcus aureus [12]) was “Active”. For the same molecule, the Activity (Staphylococcus aureus [13]) was “Active” and the Activity (Staphylococcus aureus [14]) was “Active”.
